Where two headings read alike, the source gives them in different places.
Key:
[1] = set-up: method as in PMID 25798685; details: cited from earlier work
soybean lipoxygenase [2] = target: T1, soybean lipoxygenase (Glycine max, UniProt P08170); set-up: method as in PMID 25798685; details: cited from earlier work
T1 sequence (P08170 1-839): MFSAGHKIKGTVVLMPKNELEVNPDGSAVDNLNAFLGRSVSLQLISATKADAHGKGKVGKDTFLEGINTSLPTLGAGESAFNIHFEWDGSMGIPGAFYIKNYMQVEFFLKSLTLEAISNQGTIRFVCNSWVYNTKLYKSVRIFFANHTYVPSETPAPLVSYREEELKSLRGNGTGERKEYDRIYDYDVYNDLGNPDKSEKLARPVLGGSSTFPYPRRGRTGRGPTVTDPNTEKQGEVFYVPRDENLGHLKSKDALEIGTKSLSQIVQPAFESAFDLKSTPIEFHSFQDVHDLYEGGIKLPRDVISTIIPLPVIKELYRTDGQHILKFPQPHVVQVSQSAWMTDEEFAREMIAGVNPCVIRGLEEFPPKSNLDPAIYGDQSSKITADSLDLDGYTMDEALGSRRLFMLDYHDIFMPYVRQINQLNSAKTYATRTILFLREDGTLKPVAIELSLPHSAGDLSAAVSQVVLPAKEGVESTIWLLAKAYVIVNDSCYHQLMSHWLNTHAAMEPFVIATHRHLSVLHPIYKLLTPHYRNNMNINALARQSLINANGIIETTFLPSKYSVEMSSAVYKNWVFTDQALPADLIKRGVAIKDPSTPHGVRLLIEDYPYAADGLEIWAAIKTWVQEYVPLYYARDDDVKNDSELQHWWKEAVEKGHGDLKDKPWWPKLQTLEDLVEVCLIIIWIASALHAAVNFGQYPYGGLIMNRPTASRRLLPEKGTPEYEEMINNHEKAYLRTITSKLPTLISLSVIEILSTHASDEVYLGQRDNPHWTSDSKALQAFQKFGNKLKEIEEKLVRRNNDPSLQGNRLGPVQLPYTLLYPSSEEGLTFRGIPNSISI

[3] = system: L929 mouse fibroblasts cells; set-up: method as in PMID 25798685; details: 24-h incubation, cited from earlier work
[4] = target: acetyl-cholinesterase (AChE) (Electrophorus electricus, UniProt O42275); details: cited from earlier work
acetyl-cholinesterase (AChE), sequence (O42275 24-633): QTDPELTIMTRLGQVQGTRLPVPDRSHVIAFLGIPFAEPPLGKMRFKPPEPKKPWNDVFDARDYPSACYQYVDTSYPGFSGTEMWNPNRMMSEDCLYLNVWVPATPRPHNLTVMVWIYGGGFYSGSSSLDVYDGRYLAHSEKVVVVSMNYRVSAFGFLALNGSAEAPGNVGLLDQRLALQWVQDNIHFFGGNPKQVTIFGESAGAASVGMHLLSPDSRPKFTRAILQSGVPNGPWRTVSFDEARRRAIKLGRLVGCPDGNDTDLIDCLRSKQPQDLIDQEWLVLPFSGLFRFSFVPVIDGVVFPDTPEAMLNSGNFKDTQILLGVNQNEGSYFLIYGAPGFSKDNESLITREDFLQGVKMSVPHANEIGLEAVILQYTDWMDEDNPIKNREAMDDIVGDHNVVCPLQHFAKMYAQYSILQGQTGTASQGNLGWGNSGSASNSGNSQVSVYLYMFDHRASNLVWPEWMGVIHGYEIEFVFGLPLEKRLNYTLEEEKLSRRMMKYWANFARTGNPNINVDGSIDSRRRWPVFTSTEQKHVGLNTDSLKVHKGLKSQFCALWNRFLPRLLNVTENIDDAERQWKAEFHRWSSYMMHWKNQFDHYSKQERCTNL

[5] = set-up: method as in PMID 25798685; details: RP-TLC, methanol/water 70/30, SD < 10%; cited from earlier work
[6] = set-up: method as in PMID 25798685; details: DPPH, cited from earlier work
soybean lipoxygenase [7] = target: T1, soybean lipoxygenase; experiment: biochemical; type: biochemical; details: soybean LOX, 100 μM
Summary of the method: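 Soybean LOX (enzyme solution 1/9 × 10^−4 w/v in saline) incubated at room temperature with sodium linoleate ([…]) in tris buffer pH 9. Compounds added from DMSO stocks. IC50 derived from several concentrations.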

[8] = system: L929 mouse fibroblasts cells; experiment: Cytotoxicity, propidium iodide fluorescence method; type: cell-based; details: 24-h incubation
Summary of the method: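 L929 cells in EMEM with 10% horse serum were allowed to attach for 24 h, then exposed to 1, 10, 20, 50 and 100 μM compound for 24 h at 37 °C. Cells were detached, stained with propidium iodide, and cell death was measured by flow cytometry.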

[9] = Reducing activity with the stable radical DPPH
Summary of the method: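 DPPH (final 0.05 mM) in absolute ethanol mixed with an equal volume of compound at 0.05 or 0.1 mM, ethanol as control. Absorbance at 517 nm read at room temperature after 20 and 60 min, expressed as reducing activity RA%.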

[10] = ABTS•+ decolorization assay
Summary of the method: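 Compounds (10 mM DMSO stocks, diluted) added to ABTS•+ radical generated by potassium persulfate oxidation of ABTS. Decolorization followed as absorbance at room temperature, with Trolox as standard.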

[11] = Lipophilicity as RM values by RP-TLC; type: physicochemical; set-up: key: RM = log[(1/Rf) − 1]; details: methanol/water 70/30, SD < 10%
Summary of the method: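 Reversed-phase TLC on silica gel plates impregnated with 5% (v/v) liquid paraffin, methanol/water 70/30 (v/v) mobile phase, saturated tanks at 24 °C, UV detection. RM = log[(1/Rf) − 1] from five Rf measurements.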

[12] = Inhibition of linoleic acid lipid peroxidation (AAPH)
Summary of the method: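 Sodium linoleate oxidation was initiated by AAPH in 0.05 M phosphate buffer, pH 7.4, at 37 °C, with test compound present and DMSO as blank. Conjugated diene hydroperoxide formation was followed as the absorbance increase at 234 nm.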

Structure (SMILES) | ABTS•+ Inhb. % @ 100 μM [1] | % LOX Inhb. @ 100 μM (soybean lipoxygenase [2]) [%] | 1 μM Average (% pi) ± σ [3] [%] | 10 μM Average (% pi) ± σ [3] [%] | 20 μM Average (% pi) ± σ [3] [%] | 50 μM Average (% pi) ± σ [3] [%] | 100 μM Average (% pi) ± σ [3] [%] | % AChE Inhb. @ 100 μM [4] [%] | RM [5] | RA% 100 μM 20 min [6] [%] | RA% 100 μM 60 min [6] [%] | % LOX Inhb. @ 100 μM (soybean lipoxygenase [7]) [%] | 1 μM Average (% pi) ± σ [8] [%] | 10 μM Average (% pi) ± σ [8] [%] | 20 μM Average (% pi) ± σ [8] [%] | 50 μM Average (% pi) ± σ [8] [%] | 100 μM Average (% pi) ± σ [8] [%] | RA% 100 μM 20 min [9] | RA% 100 μM 60 min [9] | ABTS•+ Inhb. % @ 100 μM [10] | further results
O=C(/C=C/c1cccc2ccccc12)c1ccc(O)cc1 [a4, (E)-1-(4-hydroxyphenyl)-3-(naphthalen-1-yl) prop-2-en-1-one] | No | 44 | 8.5 ± 2.1 | 12 ± 4.2 | 29.5 ± 0.6 | 51 ± 9.9 | 51 ± 9.9 | 25 | −0.26 | 7 | 3 | – | – | – | – | – | – | – | – | – | –
CN(C)c1ccc(/C=C/C=C/C(=O)c2ccc(O)cc2)cc1 [a3, (2E,4E)-5-(4-(dimethylamino)phenyl)-1-(4-hydroxyphenyl) penta-2,4-dien-1-one] | 12% | 56 | 14 ± 3.5 | 15 ± 0.8 | 19 ± 1.4 | 14 ± 0.7 | 14 ± 0.7 | 50 | −0.69 | 18 | 17 | – | – | – | – | – | – | – | – | – | IC50 (soybean lipoxygenase [2]; soybean LOX): 100 µM
O=C(/C=C/c1ccc(OCc2ccc(Br)cc2)cc1)c1ccc(O)cc1 [a1, (E)-3-(4-((4-bromobenzyl)oxy)phenyl)-1-(4-hydroxyphenyl) prop-2-en-1-one] | No | 14 | 1 ± 0.6 | 5 ± 2.8 | 5.5 ± 0.71 | 32 ± 4.9 | 32 ± 4.9 | 7 | 0.34 | 1 | 6 | – | – | – | – | – | – | – | – | – | –
O=C(/C=C/C(Br)=C\c1ccccc1)c1ccc(OCCCOc2ccc(C(=O)/C=C/C(Br)=C\c3ccccc3)cc2)cc1 [c9, (2E,2′E,4E,4′E)-1,1′-((propane-1,3-diylbis(oxy))bis(4,1-phenylene))bis(4-bromo-5-phenylpenta-2,4-dien-1-one)] | – | – | – | – | – | – | – | – | – | – | – | 24.5 | 12.5 ± 10.31 | 15.88 ± 6.31 | 28.76 ± 2.74 | 29.53 ± 6.87 | 29.53 ± 6.87 | No | no | No | RM [11]: −0.86; AAPH% @ 100 μM (anti-lipid peroxidation) [12]: 32%
CC(/C=C/C(=O)c1ccc(O)cc1)=C\c1ccccc1 [a8, (2E,4E)-1-(4-hydroxyphenyl)-4-methyl-5-phenylpenta-2,4-dien-1-one] | – | – | – | – | – | – | – | – | – | – | – | 14 | 1.39 ± 0.1 | 2.95 ± 1.23 | 1.84 ± 2.05 | 8.15 ± 0.34 | 8.15 ± 0.34 | 6% | 2% | No | RM [11]: −0.68; AAPH% @ 100 μM (anti-lipid peroxidation) [12]: 32%
O=C(/C=C/c1cccs1)c1ccc(OCCCOc2ccc(C(=O)/C=C/c3cccs3)cc2)cc1 [c5, (2E,2′E)-1,1′-((propane-1,3-diylbis-(oxy))bis-(4,1-phenylene)) bis-(3-(thiophen-2-yl)prop-2-en-1-one)] | – | – | – | – | – | – | – | – | – | – | – | 32 | 0.32 ± 0.45 | 0.97 ± 0.2 | 3.02 ± 1.36 | 7.26 ± 0.3 | 7.26 ± 0.3 | No | no | No | RM [11]: 0.43; AAPH% @ 100 μM (anti-lipid peroxidation) [12]: 46%

Reference: PMC6337391 (Molecules, 2019)
